{"source": "patent US9192601B2", "about": "“Methods for enhancing muscle performance and tone” (Salk Institute for Biological Studies, priority 2006, dated 2015)", "test_system": "myoglobin, UCP3, cytochrome c (CYCS) and SCDl", "experiment": "Western blotting of oxidative biomarkers in quadriceps", "format": "in vivo, mouse", "details": "combined exercise and GW1516 vs either alone", "method": "In addition to gene expression, protein expression was determined for selective oxidative biomarkers including myoglobin, UCP3, cytochrome c (CYCS) and SCDl, using Western blotting. Protein homogenates were prepared from quadriceps muscle, separated by SDS polyacrylamide gel electrophoresis, transferred to blotting membrane and probed with antibodies specific for myoglobin (Dako), UCP3 (Affinity Bioreagents), cytochrome c (Santacruz) SCDl (Santacruz), and, as a loading control, tubulin (Sigma)."}
{"molecule": "Cc1cc(SCc2sc(-c3ccc(C(F)(F)F)cc3)nc2C)ccc1OCC(=O)O", "note": "[GW1516, (2-methyl-4(((4-methyl-2-(4-trifluoromethylphenyl)-1,3-thiazol-5-yl)methyl)sulfanyl)phenoxy)acetic acid]", "values": [{"measurement": "myoglobin, UCP3, cytochrome c, and SCDl protein expression", "result": "robust up regulation"}]}
